Two compounds from patent publication US8597904B2, “Pharmaceutical compositions for the treatment of conditions responsive to proteasome inhibition” (priority 2007, dated 2013) can be followed below.

Data set [1] addresses T1, yeast 20S proteasome (Saccharomyces cerevisiae, UniProt P25043+P30656+P38624).
T1 construct: each was cocrystallized with the yeast 20S proteasome; host or cells: yeast
Kind of data set: cocrystallization with 20S proteasome, X-ray crystallography. Format: binding. Conditions: crystal structure of complex. On the procedure:
To elucidate the binding mode of syringolin. A and glidobactin A to the proteasome, each was cocrystallized with the yeast 20S proteasome. Crystals of the 20S proteasome were grown in hanging drops at 24° C. as described (Grail et al. 1997. Nature 386:463-471; Groll and Huber. 2005. Methods Enzymol. 398:329-336, each which is incorporated herein by reference in its entirety) and incubated for 60 min with syringolin A or glidobactin A. The protein concentration used for crystallization was 40 mg/ml in Tris-HCI (10 mM, pH 7.5) and EDTA (1 mM). The drops contained 3 μL of protein and 2 μL of the reservoir solution (30 mM magnesium acetate, 100 mM morpholino-ethane-sulphonic acid (pH 7.2) and 10% MPD), X-ray diffraction data to 2.9 Å for the yeast 20S proteasome:syringolin A and to 2.7 Å for the 20S proteasome:glidobactin A-complex were collected using synchrotron radiation with λ=1.05 Å on the BW6-beamline at DESY/Hamburg/Germany and with λ=1.0 Å on the […] at SLS/Villingen/Switzerland, respectively. Crystals were soaked in cryoprotecting buffer (30% MPD, 20 mM magnesium acetate, 100 mM morpholino-ethane-sulfonic acid pH 6.9) and frozen in a stream of liquid nitrogen gas at 90 K (Oxford Cryo Systems). X-ray intensities were evaluated by using the DENZO program package (Otwinowski and Minor. 1997. Methods Enzymol 276:307-326) and data reduction was performed with CCP4 (Potterton et al. 2003. Acta Crystallogr. D Biol. Crystallogr. 59:1131-1137). The space group belongs to P21 with cell dimensions of about a=134 Å, b=302 Å, c=144 Å and β=112° (Table 1). The anisotropy of diffraction was corrected by an overall anisotropic temperature factor by comparing observed and calculated structure amplitudes using the program CNS (Brünger et al. 1998. Acta Crystallogr. D Biol. Crystallogr. 54: 905-921, which is incorporated herein by reference in its entirety). […]

Data set [2] addresses T2, human erythrocyte 20S proteasomes, trypsin-like activity (Homo sapiens, UniProt Q99436).
T2 construct: which contains human erythrocyte 20S proteasomes; purchased BIOMOL International AK-740; host or cells: human erythrocytes
Kind of data set: 20S Proteasome Assay Kit, Boc-LRR-AMC substrate. The class given is biochemical. Conditions: 37° C., 100 μM Boc-LRR-AMC. The protocol:
The eukaryotic 20S proteasome contains three catalytic subunits (β1, β2, and (β5) conferring caspase-like, trypsin-like and chymotrypsin-like proteolytic activities, respectively (Borissenko and Groll. 2007. Chem. Rev. 107:687-717, which is incorporated herein by reference in its entirety). Syringolin A was tested as a proteasome inhibitor using the 20S Proteasome Assay Kit for Drug Discovery AK-740 (BIOMOL® International, Plymouth Meeting, PA, USA), which contains human erythrocyte 20S proteasomes, in a 96-well microtiter plate. The fluorogenic substrates Suc-LLVY-AMC, Boc-LRR-AMC, and Z-LLE-AMC (BIOMOL® International) were used to monitor chymotrypsin-like, trypsin-like, and caspase-like activities, respectively. […] The release of free AMC (7-amino-4-methylcoumarin) at 37° C. was monitored with an MWGt Sirius HT fluorescence microplate reader (BIO-TEK® Instruments) equipped with a 360 nm excitation and a 460 nm emission filter. Proteolytic activities were measured as the increase in relative fluorescence units (RFU) over time (FIG. 7A-C). […] The initial velocities (vi) were determined from the time derivative of these curves and plotted versus the corresponding inhibitor concentration ([I]). […] The rate of covalent inhibition (kassociation), which equals kobs/[I] was calculated over the range of inhibitor concentrations given in parentheses in FIG. 7D. […]

Data set [3] deals with SKOV3 cells. The experiment in a line: Cytox-Glo cytotoxicity assay. The class given is cell-based, human. The note with it: SKOV3, 1.0 μM GlbA or 25 μM SylA, 48 hours. The protocol: Determination of potential cytotoxic effects by GlbA and/or […] was carried out by using the Cytox-Glo cytotoxicity assay, which measures “dead cell proteases” from cells that have lost membrane integrity. Briefly, cells were treated with a single concentration of compound for 48 hours in a final volume of 100 μl, after which 50 μl of AAF-Glo luminogenic peptide substrate (alanyl-alanyl-phenylalanyl-aminoluciferin) was added to each well and incubated for 15 min at room temperature. The luminescence was measured by a Dynex MLX luminometer to give a reading of cells with damaged membranes. Next, 50 μl of digitonin was added to each well and the samples incubated for 15 minutes at room temperature. Luminescence was measured a second time to determine total cell number. Controls included cells with vehicle only, media, and media with compound.
SK-N-SH cells were treated with 0.25 μM GlbA or 25 μM SylA and SKOV3 cells were treated with 1.0 μM GlbA or 25 μM SylA. As illustrated in FIGS. 16A and 16B, control cells (treated with DMSO and H2O representing GlbA and SylA controls, respectively) were viable and no cytotoxicity was detected.

As for `CC(C)[C@H](NC(=O)N[C@H](C(=O)N[C@H]1/C=C/CCNC(=O)/C=C/[C@H](C(C)C)NC1=O)C(C)C)C(=O)O` [syringolin A], the “binding mode at proteasome active sites” value in data set [1] is “covalently binds to the hydroxy group of the active site N-terminal threonine”. For the same compound, in data set [2], the “inhibition of trypsin-like activity” value is “inhibited”. Besides, the cytotoxicity result in data set [3] is listed as “relatively low levels of cytotoxicity”.
Turning to `CCCCCCC/C=C/C=C/C(=O)N[C@H](C(=O)N[C@H]1C[C@@H](O)CCNC(=O)/C=C/[C@H](C)NC1=O)[C@@H](C)O` [glidobactin A], in data set [1], the “binding mode at proteasome active sites” value is on record as “same mechanism of inactivation” and the “binding to the caspase-like active site” value is “did not bind”. The “inhibition of trypsin-like activity” value in data set [2] is given as “less sensitive”. For the same compound, the cytotoxicity result in data set [3] is on record as “relatively low levels of cytotoxicity”.
